Several values for one entry are separate records, joined by “and”; a condition that tells them apart may be missing. Equal values may be shown once. Where a SMILES comes first, the peptide text is derived from it. [ ]: non-standard residue; d: D form. Hyp = O=C(O)[C@@H]1C[C@@H](O)CN1
Tested on: TNF-alpha
Assay: Example 9 Luminex, LPS hPBMCs: TNF-alpha
Format: cell-based, human
Protocol: Treatment Human PBMCs were pretreated with YY-101, YDE-011 and YDE-043 or reference compound; Xiidra® at various concentration (ranging from 1 nM to 100 uM) for 2 h before stimulation. An equal volume of 0.5% DMSO was used as a vehicle control. Then, the cells were treated with LPS at 5 ug/ml. The supernatants from treated cells were harvested at 24 h and placed in a 96 well for Luminex cytokine & chemokine profiling using a Luminex 200 multiplex assay (Luminex; R&D system, USA).
The main study arm with triplicate wells per group in a 24-well plate: • 1. Blank • 2. PBMC: 0.5% DMSO • 3. PBMC+LPS (5 ug/ml) • 4. PBMC+YY-101 100 uM • 5. PBMC+YY-101 10 uM • 6. PBMC+YY-101 1 uM • 7. PBMC+YY-101 0.1 uM • 8. PBMC+YY-101 0.01 uM • 9. PBMC+LPS (5 ug/ml)+Xiidra®100 uM • 10. PBMC+LPS (5 ug/ml)+Xiidra® 10 uM • 11. PBMC+LPS (5 ug/ml)+Xiidra® 1 uM • 12. PBMC+LPS (5 ug/ml)+Xiidra®0.1 uM • 13. PBMC+LPS (5 ug/ml)+Xiidra®0.01 uM • 14. PBMC+LPS (5 ug/ml)+Xiidra®0.001 uM • 15. PBMC+LPS (5 ug/ml)+YY-101 100 uM • 16. PBMC+LPS (5 ug/ml)+YY-101 10 uM • 17. PBMC+LPS (5 ug/ml)+YY-101 1 uM • 18. PBMC+LPS (5 ug/ml)+YY-101 0.1 uM • 19. PBMC+LPS (5 ug/ml)+YY-101 0.01 uM • 20. PBMC+LPS (5 ug/ml)+YY-101 0.001 uM • 21. PBMC+LPS (5 ug/ml)+YDE-011 100 uM • 22. PBMC+LPS (5 ug/ml)+YDE-011 10 uM • 23. PBMC+LPS (5 ug/ml)+YDE-011 1 uM • 24. PBMC+LPS (5 ug/ml)+YDE-011 0.1 uM • 25. PBMC+LPS (5 ug/ml)+YDE-011 0.01 uM • 26. PBMC+LPS (5 ug/ml)+YDE-011 0.001 uM • 27. PBMC+LPS (5 ug/ml)+YDE-043 100 uM • 28. PBMC+LPS (5 ug/ml)+YDE-043 10 uM • 29. PBMC+LPS (5 ug/ml)+YDE-043 1 uM • 30. PBMC+LPS (5 ug/ml)+YDE-043 0.1 uM • 31. PBMC+LPS (5 ug/ml)+YDE-043 0.01 uM • 32. PBMC+LPS (5 ug/ml)+YDE-043 0.001 uM
Multiplex assay was used to measure 30 cytokines and chemokines. The 1:2, 1:10 and 1:200 diluted cell supernatant and serial dilution of the standard were dispensed into a 96 well plate at 50 ul/well. Then, the pre-mixed cocktail of antibody-coated magnetic beads was dispensed at 50 ul/well and incubated at room temperature for 2 h in a horizontal orbital microplate shaker at 800±500 rpm. The beads were washed using a magnetic device to prevent loss. The biotin-antibody was dispensed in 50 ul of each well and incubated at room temperature for 1 h in a shaker at 800±500 rpm. After washing, streptavidin-PE was added at 50 ul/well and incubated at room temperature for 30 min in a shaker under the same conditions. Finally, after washing, wash buffer (100 ul/well) was added to the plate and incubated in a shaker for 2 min. The Luminex™ 200 setting were set according to the manufacturer's protocol. The data was calculated with a standard five-parameter logistic nonlinear regression analysis of the data (xPonent software 4.2, USA). The levels of cytokine/chemokine are normalized to the live cell counts (1×10^5 cells/mL) and presented as concentrations per mL (pg/mL or ng/mL).

[1] = PBMC + LPS(5 ug/ml) + test article 0.001 uM, Mean
[2] = PBMC + LPS(5 ug/ml) + test article 0.001 uM, individual replicates (1st, 2nd, 3rd)
[3] = PBMC + LPS(5 ug/ml) + test article 0.01 uM, Mean
[4] = PBMC + LPS(5 ug/ml) + test article 0.01 uM, individual replicates (1st, 2nd, 3rd)
[5] = PBMC + LPS(5 ug/ml) + test article 0.1 uM, Mean
[6] = PBMC + LPS(5 ug/ml) + test article 0.1 uM, individual replicates (1st, 2nd, 3rd)
[7] = PBMC + LPS(5 ug/ml) + test article 1 uM, Mean
[8] = PBMC + LPS(5 ug/ml) + test article 1 uM, individual replicates (1st, 2nd, 3rd)
[9] = PBMC + LPS(5 ug/ml) + test article 10 uM, Mean
[10] = PBMC + LPS(5 ug/ml) + test article 10 uM, individual replicates (1st, 2nd, 3rd)
[11] = PBMC + LPS(5 ug/ml) + test article 100 uM, Mean
[12] = PBMC + LPS(5 ug/ml) + test article 100 uM, individual replicates (1st, 2nd, 3rd)
[13] = PBMC + test article 0.01 uM, no LPS, Mean
[14] = PBMC + test article 0.01 uM, no LPS, individual replicates (1st, 2nd)
[15] = PBMC + test article 0.1 uM, no LPS, Mean
[16] = PBMC + test article 0.1 uM, no LPS, individual replicates (1st, 2nd)
[17] = PBMC + test article 1 uM, no LPS, Mean
[18] = PBMC + test article 1 uM, no LPS, individual replicates (1st, 2nd)
[19] = PBMC + test article 10 uM, no LPS, Mean
[20] = PBMC + test article 10 uM, no LPS, individual replicates (1st, 2nd)
[21] = PBMC + test article 100 uM, no LPS, Mean

Compound: CC(C)C[C@H](NC(=O)CNC(=O)[C@H](CC(=O)O)NC(=O)[C@H](CCC(N)=O)NC(=O)CNC(=O)[C@@H]1C[C@@H](O)CN1)C(=O)N[C@@H](C)C(=O)NCC(=O)N1CCC[C@H]1C(=O)N[C@@H](CCCCN)C(=O)O [YY-101] (H-[Hyp]GQDGLAGPK-OH; N-terminus and C-terminus assumed)
- LPS-induced TNF-alpha (in words) (LPS 5 ug/mL 24 hrs, at as low as 1 nM): significantly reduced
- TNF-alpha Concentration [1]: 2433.4 pg/mL
- TNF-alpha conc/live cell [1]: 379.7 pg/10^5
- TNF-alpha Concentration [2]: 2537.1 pg/mL and 2609.2 pg/mL and 2154.0 pg/mL
- TNF-alpha conc/live cell [2]: 445.1 pg/10^5 and 367.5 pg/10^5 and 326.4 pg/10^5
- TNF-alpha Concentration [3]: 2746.9 pg/mL
- TNF-alpha conc/live cell [3]: 445.6 pg/10^5
- TNF-alpha Concentration [4]: 2819.6 pg/mL and 2784.2 pg/mL and 2636.8 pg/mL
- TNF-alpha conc/live cell [4]: 440.6 pg/10^5 and 464.0 pg/10^5 and 432.3 pg/10^5
- TNF-alpha Concentration [5]: 2852.4 pg/mL
- TNF-alpha conc/live cell [5]: 489.7 pg/10^5
- TNF-alpha Concentration [6]: 2791.9 pg/mL and 2870.4 pg/mL and 2895.0 pg/mL
- TNF-alpha conc/live cell [6]: 450.3 pg/10^5 and 552.0 pg/10^5 and 466.9 pg/10^5
- TNF-alpha Concentration [7]: 2552.6 pg/mL
- TNF-alpha conc/live cell [7]: 392.3 pg/10^5
- TNF-alpha Concentration [8]: 2738.1 pg/mL and 2506.5 pg/mL and 2413.2 pg/mL
- TNF-alpha conc/live cell [8]: 434.6 pg/10^5 and 353.0 pg/10^5 and 389.2 pg/10^5
- TNF-alpha Concentration [9]: 2746.8 pg/mL
- TNF-alpha conc/live cell [9]: 416.6 pg/10^5
- TNF-alpha Concentration [10]: 2741.2 pg/mL and 2807.3 pg/mL and 2692.0 pg/mL
- TNF-alpha conc/live cell [10]: 456.9 pg/10^5 and 438.6 pg/10^5 and 354.2 pg/10^5
- TNF-alpha Concentration [11]: 2443.4 pg/mL
- TNF-alpha conc/live cell [11]: 423.4 pg/10^5
- TNF-alpha Concentration [12]: 2569.3 pg/mL and 2318.5 pg/mL and 2442.3 pg/mL
- TNF-alpha conc/live cell [12]: 407.8 pg/10^5 and 374.0 pg/10^5 and 488.5 pg/10^5
- TNF-alpha Concentration [13]: 28.1 pg/mL
- TNF-alpha conc/live cell [13]: 5.6 pg/10^5
- TNF-alpha Concentration [14]: 26.8 pg/mL and 29.4 pg/mL
- TNF-alpha conc/live cell [14]: 5.1 pg/10^5 and 6.1 pg/10^5
- TNF-alpha Concentration [15]: 29.4 pg/mL
- TNF-alpha conc/live cell [15]: 5.8 pg/10^5
- TNF-alpha Concentration [16]: 26.8 pg/mL and 32.0 pg/mL
- TNF-alpha conc/live cell [16]: 6.1 pg/10^5 and 5.5 pg/10^5
- TNF-alpha Concentration [17]: 33.3 pg/mL
- TNF-alpha conc/live cell [17]: 6.1 pg/10^5
- TNF-alpha Concentration [18]: 32.0 pg/mL and 34.6 pg/mL
- TNF-alpha conc/live cell [18]: 5.8 pg/10^5 and 6.3 pg/10^5
- TNF-alpha Concentration [19]: 61.4 pg/mL
- TNF-alpha conc/live cell [19]: 9.7 pg/10^5
- TNF-alpha Concentration [20]: 90.9 pg/mL and 32.0 pg/mL
- TNF-alpha conc/live cell [20]: 14.2 pg/10^5 and 5.2 pg/10^5
- TNF-alpha Concentration [21]: 72.7 pg/mL
- TNF-alpha conc/live cell [21]: 11.0 pg/10^5
- TNF-alpha Concentration (PBMC + test article 100 uM, no LPS, individual replicates (1st, 2nd)): 95.0 pg/mL and 50.5 pg/mL
